Each block holds one molecule with its values, some of them ahead of it.
Tests used:
[1] = Solubility of insulin in aqueous solutions containing a delivery agent
Experimental: The solubility of insulin was investigated in aqueous solutions containing varying amounts of the delivery agent compound sodium 4-CNAB. The aqueous solution containing delivery agent was adjusted to pH 1 by the addition of 1N HCl and excess insulin was added to the acidified solution. Thereafter, the pH of the solution was increased by the addition of increments of 1N NaOH. Vials containing the suspensions were left without shaking or sonicating for 1-2 hours. The supernatant was analyzed for insulin and sodium 4-CNAB using an HPLC method and the pH was recorded. […] All of these experiments were performed at room temperature.

[2] = Dissolution of insulin pellet (USP Dissolution Type II paddle); type: physicochemical
Experimental: A 300 mg pellet of insulin was prepared in a die. The surface area of the pellet available to the dissolution medium was 0.484 cm^2. The pellet was compressed at 1200-1400 lbs on a Carver press to form discs. The die was then attached to the shaft of a dissolution apparatus (USP Dissolution Type II (Paddle) made by Vankel). The die was rotated at 100 rpm and then immersed in 500 mL of degassed dissolution medium maintained at 37° C. Dissolution experiments were conducted in water and in aqueous solutions containing sodium 4-CNAB. Samples of the solutions were taken over two hours and analyzed by HPLC. FIGS. 3 and 4 show dissolution profiles of insulin in deionized (DI) water and in 10 mg/mL sodium 4-CNAB solution, respectively.

[3] = for Solubility: pH 6.8
Experimental: Excess insulin was added to buffer solutions at pH values of 1, 2, 3, 4, 5, 6, 6.8, and 7.4. Vials containing the solutions were shaken in a constant temperature water bath, and visually observed at regular time intervals. Samples were taken at 2 hours, 4 hours, and 24 hours and analyzed by a stability-indicating HPLC method.

Molecule: Insulin: insulin (recombinant human insulin) whose solubility and dissolution were tested
- Insulin ([1]; None (DI water), pH 6.3, room temperature): 1.14 mg/mL
- rate of insulin dissolution ([2]; 10 mg/mL sodium 4-CNAB dissolution media versus deionized water, 37° C., 100 rpm): significantly greater
- insulin levels in dissolution media ([2]; 50 mg/ml sodium 4-CNAB dissolution media, HPLC): below the detection limits

Molecule: insulin type #1: recombinant human zinc insulin obtained from Diosynth France
- dissolution rate, visual observation ([3]; not observed at pH 1, 2, and 7.4 where dissolution was very rapid for both): dissolved faster than insulin type #2
- Solubility [3]: greater than 4 mg/mL

Molecule: insulin type #2: recombinant human zinc insulin obtained from Eli Lilly Co.
- Solubility [3]: > 2000 µg/mL

Second part, the molecule after the results:

- Insulin ([1]; delivery agent 250 mg/mL, pH 3.9, room temperature): >50 mg/mL
Molecule: OCCN(CCO)CCCCCCCCOc1ccccc1O [HPOD, 8-(2-hydroxyphenoxy)octyldiethanolamine]

- Insulin ([1]; delivery agent 150 mg/mL, pH 7.9, room temperature): >200 mg/mL
Molecule: O=C(O)CCCCCCCNC(=O)c1ccccc1O [SNAC, N-(8-[2-hydroxybenzoyl]-amino) caprylic acid]

- Insulin ([1]; delivery agent 5 mg/mL, pH of delivery agent solution 6.4, room temperature): 0.5 mg/mL
- Insulin ([1]; delivery agent 10 mg/mL, pH 6.45, room temperature): 1 mg/mL
- Insulin ([1]; delivery agent 50 mg/mL, pH 6.26, room temperature): 11 mg/mL
- Insulin ([1]; delivery agent 50 mg/mL, pH 6.49, room temperature): 44 mg/mL
- Insulin ([1]; delivery agent 100 mg/mL, pH 6.45, room temperature): >110 mg/mL
- Insulin ([1]; delivery agent 100 mg/mL, pH 6.71, room temperature): 86 mg/mL
- Insulin ([1]; delivery agent 150 mg/mL, pH 6.83, room temperature): 187 mg/mL
- Insulin ([1]; delivery agent 200 mg/mL, pH 6.79, room temperature): >135 mg/mL
Molecule: O=C(O)CCCNC(=O)c1ccc(Cl)cc1O [Treatment 4-CNAB, 4-[(2-hydroxy-4-chlorobenzoyl)amino]butanoate]

Source: patent US8927015B2, “Formulations for delivering insulin” (Emisphere Technologies, Inc., priority 2006, dated 2015)
